Measured values taken from ChEMBL document CHEMBL1201862, “PubChem BioAssay data set” (2004).
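Growth conditions: 96-well plates. Treatment: test compound, 48 hours, 5 concentrations. Analysis: linear interpolation between bracketing concentrations; unreached endpoints set to highest concentration. GI50 is the concentration that inhibits growth by half.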 Calls of active or inactive are those of the source. Rule as the data show it: active = GI50 up to about 1.1 µM and inactive = higher.

Columns and labels:
Assay in all cases: inhibition of tumour cell growth, NCI panel, 48 h
786-0 = test system: 786-0
A498 = test system: A498
A549 = test system: A549
ACHN = test system: ACHN
BT-549 = test system: BT-549
CAKI-1 = test system: CAKI-1
CCRF-CEM = test system: CCRF-CEM
COLO 205 = test system: COLO 205
DU-145 = test system: DU-145
EKVX = test system: EKVX
HCC 2998 = test system: HCC 2998
HCT-116 = test system: HCT-116
HCT-15 = test system: HCT-15
HL-60 = test system: HL-60
HOP-62 = test system: HOP-62
HOP-92 = test system: HOP-92
HT-29 = test system: HT-29
Hs-578T = test system: Hs-578T
IGROV-1 = test system: IGROV-1
K562 = test system: K562
KM12 = test system: KM12
LOX IMVI = test system: LOX IMVI
M14 = test system: M14
MCF7 = test system: MCF7
MDA-MB-231 = test system: MDA-MB-231
MDA-MB-435 = test system: MDA-MB-435
MDA-N = test system: MDA-N
MOLT-4 = test system: MOLT-4
Malme-3M = test system: Malme-3M
NCI-H226 = test system: NCI-H226
NCI-H23 = test system: NCI-H23
NCI-H460 = test system: NCI-H460
NCI-H522 = test system: NCI-H522
NCI/ADR-RES = test system: NCI/ADR-RES
OVCAR-3 = test system: OVCAR-3
OVCAR-4 = test system: OVCAR-4
OVCAR-5 = test system: OVCAR-5
OVCAR-8 = test system: OVCAR-8
PC-3 = test system: PC-3
RPMI-8226 = test system: RPMI-8226
RXF 393 = test system: RXF 393
SF-268 = test system: SF-268
SF-295 = test system: SF-295
SF-539 = test system: SF-539
SK-MEL-28 = test system: SK-MEL-28
SK-MEL-2 = test system: SK-MEL-2
SK-MEL-5 = test system: SK-MEL-5
SK-OV-3 = test system: SK-OV-3
SN12C = test system: SN12C
SNB-19 = test system: SNB-19
SNB-75 = test system: SNB-75
SR = test system: SR
SW-620 = test system: SW-620
T47D = test system: T47D
TK-10 = test system: TK-10
U-251 = test system: U-251
UACC-257 = test system: UACC-257
UACC-62 = test system: UACC-62
UO-31 = test system: UO-31

Compound: COCCOC1=CC(=O)c2c(O)ccc(O)c2C1=O
- GI50 (786-0): 1.64 µM (inactive)
- GI50 (A498): 1.79 µM (inactive)
- GI50 (A549): 2 µM (inactive)
- GI50 (ACHN): 1.87 µM (inactive)
- GI50 (BT-549): 1.77 µM (inactive)
- GI50 (CAKI-1): 2.59 µM (inactive)
- GI50 (CCRF-CEM): 4.3 µM (inactive)
- GI50 (COLO 205): 0.284 µM (active)
- GI50 (DU-145): 0.893 µM (active)
- GI50 (EKVX): 2.14 µM (inactive)
- GI50 (HCC 2998): 2.17 µM (inactive)
- GI50 (HCT-116): 0.285 µM (active)
- GI50 (HCT-15): 1.02 µM
- GI50 (HL-60): 0.52 µM (active)
- GI50 (HOP-62): 0.724 µM (active)
- GI50 (HOP-92): 2.13 µM (inactive)
- GI50 (HT-29): 0.585 µM (active)
- GI50 (Hs-578T): 4.04 µM (inactive)
- GI50 (IGROV-1): 1.72 µM (inactive)
- GI50 (K562): 2.69 µM (inactive)
- GI50 (KM12): 1.93 µM (inactive)
- GI50 (LOX IMVI): 0.726 µM (active)
- GI50 (M14): 0.186 µM (active)
- GI50 (MCF7): 0.275 µM (active)
- GI50 (MDA-MB-231): 1.75 µM (inactive)
- GI50 (MDA-MB-435): 0.179 µM (active)
- GI50 (MDA-N): 0.186 µM (active)
- GI50 (MOLT-4): 2.43 µM (inactive)
- GI50 (Malme-3M): 0.167 µM (active)
- GI50 (NCI-H226): 2.23 µM (inactive)
- GI50 (NCI-H23): 1.12 µM (active)
- GI50 (NCI-H460): 1.58 µM (inactive)
- GI50 (NCI-H522): 2.29 µM (inactive)
- GI50 (NCI/ADR-RES): 2.44 µM (inactive)
- GI50 (OVCAR-3): 0.662 µM (active)
- GI50 (OVCAR-4): 1.89 µM (inactive)
- GI50 (OVCAR-5): 1.61 µM (inactive)
- GI50 (OVCAR-8): 1.73 µM (inactive)
- GI50 (PC-3): 2.34 µM (inactive)
- GI50 (RPMI-8226): 4.28 µM (inactive)
- GI50 (RXF 393): 2.19 µM (inactive)
- GI50 (SF-268): 1.89 µM (inactive)
- GI50 (SF-295): 1.69 µM (inactive)
- GI50 (SF-539): 1.73 µM (inactive)
- GI50 (SK-MEL-28): 1.52 µM (inactive)
- GI50 (SK-MEL-2): 1.27 µM (inactive)
- GI50 (SK-MEL-5): 0.163 µM (active)
- GI50 (SK-OV-3): 8.41 µM (inactive)
- GI50 (SN12C): 1.63 µM (inactive)
- GI50 (SNB-19): 2.3 µM (inactive)
- GI50 (SNB-75): 2 µM (inactive)
- GI50 (SR): 5.01 µM (inactive)
- GI50 (SW-620): 0.569 µM (active)
- GI50 (T47D): 2.36 µM (inactive)
- GI50 (TK-10): 1.91 µM (inactive)
- GI50 (U-251): 1.92 µM (inactive)
- GI50 (UACC-257): 0.203 µM (active)
- GI50 (UACC-62): 1.85 µM (inactive)
- GI50 (UO-31): 2.17 µM (inactive)

Compound: CCOC(=O)Oc1ccc(C(CNC(C)C)OC(=O)OCC)cc1OC(=O)OCC (configuration not stated)
- GI50 (786-0): > 100 µM (inactive)
- GI50 (A498): > 100 µM (inactive)
- GI50 (A549): > 100 µM (inactive)
- GI50 (ACHN): > 100 µM (inactive)
- GI50 (BT-549): > 100 µM (inactive)
- GI50 (CAKI-1): > 100 µM (inactive)
- GI50 (CCRF-CEM): 48.1 µM (inactive)
- GI50 (COLO 205): > 100 µM (inactive)
- GI50 (DU-145): > 100 µM (inactive)
- GI50 (EKVX): > 100 µM (inactive)
- GI50 (HCC 2998): > 100 µM (inactive)
- GI50 (HCT-116): > 100 µM (inactive)
- GI50 (HCT-15): > 100 µM
- GI50 (HL-60): 25.4 µM (inactive)
- GI50 (HOP-62): > 100 µM (inactive)
- GI50 (HOP-92): > 100 µM (inactive)
- GI50 (HT-29): > 100 µM (inactive)
- GI50 (Hs-578T): > 100 µM (inactive)
- GI50 (IGROV-1): > 100 µM (inactive)
- GI50 (K562): > 100 µM (inactive)
- GI50 (KM12): > 100 µM (inactive)
- GI50 (LOX IMVI): > 100 µM (inactive)
- GI50 (M14): > 100 µM (inactive)
- GI50 (MCF7): > 100 µM (inactive)
- GI50 (MDA-MB-231): 26.2 µM (inactive)
- GI50 (MDA-MB-435): > 100 µM (inactive)
- GI50 (MDA-N): > 100 µM (inactive)
- GI50 (MOLT-4): 96.8 µM (inactive)
- GI50 (Malme-3M): > 100 µM (inactive)
- GI50 (NCI-H226): > 100 µM (inactive)
- GI50 (NCI-H23): > 100 µM (inactive)
- GI50 (NCI-H460): > 100 µM (inactive)
- GI50 (NCI-H522): 49.9 µM (inactive)
- GI50 (NCI/ADR-RES): > 100 µM (inactive)
- GI50 (OVCAR-3): > 100 µM (inactive)
- GI50 (OVCAR-4): 65.5 µM (inactive)
- GI50 (OVCAR-5): > 100 µM (inactive)
- GI50 (OVCAR-8): > 100 µM (inactive)
- GI50 (PC-3): > 100 µM (inactive)
- GI50 (RPMI-8226): > 100 µM (inactive)
- GI50 (RXF 393): 11.5 µM (inactive)
- GI50 (SF-268): > 100 µM (inactive)
- GI50 (SF-295): > 100 µM (inactive)
- GI50 (SF-539): > 100 µM (inactive)
- GI50 (SK-MEL-28): > 100 µM (inactive)
- GI50 (SK-MEL-2): > 100 µM (inactive)
- GI50 (SK-MEL-5): > 100 µM (inactive)
- GI50 (SK-OV-3): > 100 µM (inactive)
- GI50 (SN12C): > 100 µM (inactive)
- GI50 (SNB-19): > 100 µM (inactive)
- GI50 (SNB-75): > 100 µM (inactive)
- GI50 (SR): > 100 µM (inactive)
- GI50 (SW-620): > 100 µM (inactive)
- GI50 (T47D): > 100 µM (inactive)
- GI50 (TK-10): > 100 µM (inactive)
- GI50 (U-251): > 100 µM (inactive)
- GI50 (UACC-257): > 100 µM (inactive)
- GI50 (UACC-62): > 100 µM (inactive)
- GI50 (UO-31): 43.4 µM (inactive)

Compound: COc1cccc(C(=O)N[C@@H]2[C@H](O)[C@@H](CO)O[C@H]2n2cnc3c(N)ncnc32)c1
- GI50 (786-0): > 100 µM (inactive)
- GI50 (A498): > 100 µM (inactive)
- GI50 (A549): > 100 µM (inactive)
- GI50 (ACHN): > 100 µM (inactive)
- GI50 (BT-549): > 100 µM (inactive)
- GI50 (CAKI-1): > 100 µM (inactive)
- GI50 (CCRF-CEM): > 100 µM (inactive)
- GI50 (COLO 205): > 100 µM (inactive)
- GI50 (DU-145): > 100 µM (inactive)
- GI50 (EKVX): > 100 µM (inactive)
- GI50 (HCC 2998): > 100 µM (inactive)
- GI50 (HCT-116): > 100 µM (inactive)
- GI50 (HCT-15): > 100 µM
- GI50 (HL-60): > 100 µM (inactive)
- GI50 (HOP-62): > 100 µM (inactive)
- GI50 (HOP-92): > 100 µM (inactive)
- GI50 (HT-29): > 100 µM (inactive)
- GI50 (Hs-578T): > 100 µM (inactive)
- GI50 (IGROV-1): > 100 µM (inactive)
- GI50 (K562): > 100 µM (inactive)
- GI50 (KM12): > 100 µM (inactive)
- GI50 (LOX IMVI): > 100 µM (inactive)
- GI50 (M14): > 100 µM (inactive)
- GI50 (MCF7): > 100 µM (inactive)
- GI50 (MDA-MB-231): > 100 µM (inactive)
- GI50 (MDA-MB-435): > 100 µM (inactive)
- GI50 (MDA-N): > 100 µM (inactive)
- GI50 (MOLT-4): > 100 µM (inactive)
- GI50 (Malme-3M): > 100 µM (inactive)
- GI50 (NCI-H226): > 100 µM (inactive)
- GI50 (NCI-H23): > 100 µM (inactive)
- GI50 (NCI-H460): > 100 µM (inactive)
- GI50 (NCI-H522): > 100 µM (inactive)
- GI50 (NCI/ADR-RES): > 100 µM (inactive)
- GI50 (OVCAR-3): > 100 µM (inactive)
- GI50 (OVCAR-4): > 100 µM (inactive)
- GI50 (OVCAR-5): > 100 µM (inactive)
- GI50 (OVCAR-8): > 100 µM (inactive)
- GI50 (PC-3): > 100 µM (inactive)
- GI50 (RPMI-8226): > 100 µM (inactive)
- GI50 (RXF 393): > 100 µM (inactive)
- GI50 (SF-268): > 100 µM (inactive)
- GI50 (SF-295): > 100 µM (inactive)
- GI50 (SF-539): > 100 µM (inactive)
- GI50 (SK-MEL-28): > 100 µM (inactive)
- GI50 (SK-MEL-2): > 100 µM (inactive)
- GI50 (SK-MEL-5): > 100 µM (inactive)
- GI50 (SK-OV-3): > 100 µM (inactive)
- GI50 (SN12C): > 100 µM (inactive)
- GI50 (SNB-19): > 100 µM (inactive)
- GI50 (SNB-75): > 100 µM (inactive)
- GI50 (SR): > 100 µM (inactive)
- GI50 (SW-620): > 100 µM (inactive)
- GI50 (T47D): > 100 µM (inactive)
- GI50 (TK-10): > 100 µM (inactive)
- GI50 (U-251): > 100 µM (inactive)
- GI50 (UACC-257): > 100 µM (inactive)
- GI50 (UACC-62): > 100 µM (inactive)
- GI50 (UO-31): > 100 µM (inactive)
